pIC50: −log10 of the molar value.
Tested on: Endogenous Huntingtin Protein
Assay: Endogenous Huntingtin Protein Assay (ELISA-based Meso Scale Discovery electrochemiluminescence)
Assay type: cell-based
Conditions: MSD electrochemiluminescence, Table 1
In short: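 Sandwich MSD electrochemiluminescence immunoassay. Capture used MW1 (expanded polyglutamine) or MAB2166 antibody coated at 1 μg/mL overnight at 4 °C. Samples were bound overnight at 4 °C, then a rabbit monoclonal detection antibody and SULFO-TAG anti-rabbit, each at 0.25 μg/mL, were applied for 1 h at room temperature.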

Compound	pIC50
CN(c1ncc(-c2ccc(-c3ccc(O)nn3)cc2O)nn1)C1CC(C)(C)NC(C)(C)C1 [Cpd 134, 6-(3-hydroxy-4-{3-[methyl(2,2,6,6-tetramethylpiperidin-4-yl)amino]-1,2,4-triazin-6-yl}phenyl)pyridazin-3-ol]	≥ 7.00
CC(C)(C)NC1CCN(c2ncc(-c3ccc(-n4nccn4)cc3O)nn2)C1 (stereo not drawn) [Cpd 204, 2-{3-[3-(tert-butylamino)pyrrolidin-l-yl]-1,2,4-triazin-6-yl}-5-(2H-1,2,3-triazol-2-yl)phenol]	≥ 7.00
Cn1nnc(-c2ccc(-c3cnc(N4CCC(NC(C)(C)C)C4)nn3)c(O)c2)n1 (centres unmarked) [Cpd 211, 2-{3-[3-(tert-butylamino)pyrrolidin-1-yl]-1,2,4-triazin-6-yl}-5-(2-methyl-2H-tetrazol-5-yl)phenol]	≥ 7.00
CN(c1ncc(-c2ccc(-n3nccn3)cc2O)nn1)[C@H]1C[C@]2(C)CC[C@](C)(C1)N2 [Cpd 417]	≥ 7.00
Cc1ncc(-c2ccc(-c3cnc(N(C)C4CC(C)(C)NC(C)(C)C4)nn3)c(O)c2)s1 [Cpd 64, 2-{3-[methyl(2,2,6,6-tetramethylpiperidin-4-yl)amino]-1,2,4-triazin-6-yl}-5-(2-methyl-1,3-thiazol-5-yl)phenol]	≥ 7.00
Cc1cn(-c2ccc(-c3cnc(N4CC5(CCN(C)CC5)C4)nn3)c(O)c2)cn1 [Cpd 228, 2-[3-(7-methyl-2,7-diazaspiro[3.5]nonan-2-yl)-1,2,4-triazin-6-yl]-5-(4-methyl-1H-imidazol-1-yl)phenol]	≥ 7.00
CN(c1cnc(-c2ccc(-c3ccncc3)cc2O)nn1)C1CC(C)(C)NC(C)(C)C1 [Cpd 382, 2-{6-[methyl(2,2,6,6-tetramethylpiperidin-4-yl)amino]-1,2,4-triazin-3-yl}-5-(pyridin-4-yl)phenol]	≥ 7.00
CN(c1ncc(-c2ccc(-c3cc4nc[nH]c4c(F)c3F)cc2O)nn1)C1CC(C)(C)NC(C)(C)C1 [Cpd 301, 5-(6,7-difluoro-1H-benzimidazol-5-yl)-2-{3-[methyl(2,2,6,6-tetramethylpiperidin-4-yl)amino]-1,2,4-triazin-6-yl}phenol]	≥ 7.00
CN(c1ncc(-c2ccc(-c3ccncn3)cc2O)nn1)C1CC(C)(C)NC(C)(C)C1 [Cpd 102, 2-{3-[methyl(2,2,6,6-tetramethylpiperidin-4-yl)amino]-1,2,4-triazin-6-yl}-5-(pyrimidin-4-yl)phenol]	≥ 7.00
Cc1cn2nc(-c3ccc(-c4cnc(N(C)C5CC(C)(C)NC(C)(C)C5)nn4)c(O)c3)cc(C)c2n1 [Cpd 141, 5-(2,8-dimethylimidazo[1,2-b]pyridazin-6-yl)-2-{3-[methyl(2,2,6,6-tetramethylpiperidin-4-yl)amino]-1,2,4-triazin-6-yl}phenol]	≥ 7.00
CC(C)(C)NC1CCN(c2ncc(-c3ccc(-c4cn[nH]c4)cc3O)nn2)C1 (centres unmarked) [Cpd 138, 2-{3-[3-(tert-butylamino)pyrrolidin-1-yl]-1,2,4-triazin-6-yl}-5-(1H-pyrazol-4-yl)phenol]	≥ 7.00
COc1cc(-c2ccc(-c3cnc(N4CCC(NC(C)(C)C)C4)nn3)c(O)c2)ncn1 (centres unmarked) [Cpd 217, 2-{3-[3-(tert-butylamino)pyrrolidin-1-yl]-1,2,4-triazin-6-yl}-5-(6-methoxypyrimidin-4-yl)phenol]	≥ 7.00
CN(c1ncc(-c2ccc(-c3cc(CO)ncn3)cc2O)nn1)C1CC(C)(C)NC(C)(C)C1 [Cpd 179, 5-[6-(hydroxymethyl)pyrimidin-4-yl]-2-{3-[methyl(2,2,6,6-tetramethylpiperidin-4-yl)amino]-1,2,4-triazin-6-yl}phenol]	≥ 7.00
CN(c1ncc(-c2ccc(-c3ccc(O)cc3)cc2O)nn1)C1CC(C)(C)NC(C)(C)C1 [Cpd 103, 4-{3-[methyl(2,2,6,6-tetramethylpiperidin-4-yl)amino]-1,2,4-triazin-6-yl}[1,1'-biphenyl]-3,4’-diol]	≥ 7.00
CN(c1ncc(-c2ccc(-c3cc4ncn(C)c4c(F)c3F)cc2O)nn1)C1CC(C)(C)NC(C)(C)C1 [Cpd 302, 5-(6,7-difluoro-1-methyl-1H-benzimidazol-5-yl)-2-{3-[methyl(2,2,6,6-tetramethylpiperidin-4-yl)amino]-1,2,4-triazin-6-yl}phenol]	< 6.30
Cc1nnn(-c2ccc(-c3cnc(N(C)C4CC(C)(C)NC(C)(C)C4)nn3)c(O)c2)n1 [Cpd 119, 2-{3-[methyl(2,2,6,6-tetramethylpiperidin-4-yl)amino]-1,2,4-triazin-6-yl}-5-(5-methyl-2H-tetrazol-2-yl)phenol]	≥ 7.00
CN1CCC2(CC1)CN(c1ncc(-c3ccc(-c4ccc5c(cnn5C)c4)cc3O)nn1)C2 [Cpd 223]	6.30 to 7.00
CN(c1ncc(-c2ccc(-c3ccn(C)c(=O)c3)cc2O)nn1)C1CC(C)(C)NC(C)(C)C1 [Cpd 56]	≥ 7.00
CN(c1ncc(-c2ccc(-c3cnc4c(cnn4C)c3)cc2O)nn1)C1CC(C)(C)NC(C)(C)C1 [Cpd 176, 5-(1-methyl-1H-pyrazolo[3,4-b]pyridin-5-yl)-2-{3-[methyl(2,2,6,6-tetramethylpiperidin-4-yl)amino]-1,2,4-triazin-6-yl}phenol]	≥ 7.00
Oc1cc(-c2cn[nH]c2)ccc1-c1cnc(NC2C[C@H]3CC[C@@H](C2)N3)nn1 (some centres unmarked) [Cpd 78]	≥ 7.00

More lines, now with the values ahead:

pIC50	Compound
≥ 7.00	[2H]C([2H])([2H])n1cc(-c2ccc(-c3ncc(NC4CC(C)(C)NC(C)(C)C4)nn3)c(O)c2)cn1 [Cpd 424, 5-[1-(^2H3)methyl-1H-pyrazol-4-yl]-2-{6-[(2,2,6,6-tetramethylpiperidin-4-yl)amino]-1,2,4-triazin-3-yl}phenol]
≥ 7.00	CC1(C)C[C@H](Nc2ncc(-c3ccc(-c4cn[nH]c4)cc3O)nn2)[C@H](F)C(C)(C)N1 [Cpd 322, 2-(3-{[(3S,4S)-3-fluoro-2,2,6,6-tetramethylpiperidin-4-yl]amino}-1,2,4-triazin-6-yl)-5-(1H-pyrazol-4-yl)phenol]
≥ 7.00	CC1(C)C[C@H](Nc2ncc(-c3ccc(-c4cn5ccnc5cn4)cc3O)nn2)[C@H](F)C(C)(C)N1 [Cpd 248, 2-(3-{[(3S,4S)-3-fluoro-2,2,6,6-tetramethylpiperidin-4-yl]amino}-1,2,4-triazin-6-yl)-5-(imidazo[1,2-a]pyrazin-6-yl)phenol]
≥ 7.00	CC1(C)CC(Nc2ncc(-c3ccc(-c4ccnnc4)cc3O)nn2)CC(C)(C)N1 [Cpd 314, 5-(pyridazin-4-yl)-2-{3-[(2,2,6,6-tetramethylpiperidin-4-yl)amino]-1,2,4-triazin-6-yl}phenol]
≥ 7.00	Cc1ncc(-c2ccc(-c3cnc(NC4CC(C)(C)NC(C)(C)C4)nn3)c(O)c2)o1 [Cpd 277, 5-(2-methyl-1,3-oxazol-5-yl)-2-{3-[(2,2,6,6-tetramethylpiperidin-4-yl)amino]1,2,4-triazin-6-yl}phenol]
≥ 7.00	CC1(C)CC(Nc2ncc(-c3ccc(-c4ncccn4)cc3O)nn2)CC(C)(C)N1 [Cpd 279, 5-(pyrimidin-2-yl)-2-{3-[(2,2,6,6-tetramethylpiperidin-4-yl)amino]-1,2,4-triazin-6-yl}phenol]
≥ 7.00	CC(C)NC1(C)CCN(c2ncc(-c3ccc(-c4cnn(C)c4)cc3O)nn2)C1 (centres unmarked) [Cpd 422]
6.30 to 7.00	CO[C@H]1[C@@H](Nc2ncc(-c3ccc(-c4cn[nH]c4)cc3O)nn2)CC(C)(C)NC1(C)C [Cpd 286, 2-(3-{[(3S,4S)-3-methoxy-2,2,6,6-tetramethylpiperidin-4-yl]amino}-1,2,4-triazin-6-yl)-5-(1H-pyrazol-4-yl)phenol]
< 6.30	CN[C@@H]1CN(c2ncc(-c3ccc(-c4cn[nH]c4)cc3O)nn2)C[C@H]1OC [Cpd 346, 2-{3-[(3R,4R)-3-methoxy-4-(methylamino)pyrrolidin-1-yl]-1,2,4-triazin-6-yl}-5-(1H-pyrazol-4-yl)phenol]
≥ 7.00	CC(C)(C)NC1CCN(c2cnc(-c3ccc(-c4cn[nH]c4)cc3O)nn2)C1 (stereo not drawn) [Cpd 363, 2-{6-[3-(tert-butylamino)pyrrolidin-l-yl]-1,2,4-triazin-3-yl}-5-(1H-pyrazol-4-yl)phenol]
≥ 7.00	COc1cc(-c2ccc(-c3cnc(N4CCC(NC(C)C)C4)nn3)c(O)c2)ncn1 (centres unmarked) [Cpd 265, 5-(6-methoxypyrimidin-4-yl)-2-(3-{3-[(propan-2-yl)amino]pyrrolidin-1-yl}-1,2,4-triazin-6-yl)phenol]
≥ 7.00	CC1(NCC2CCN(c3ncc(-c4ccc(-c5cn[nH]c5)cc4O)nn3)C2)CCOCC1 (centres unmarked) [Cpd 391, 2-[3-(3-{[(4-methyloxan-4-yl)amino]methyl}pyrrolidin-1-yl)-1,2,4-triazin-6-yl]-5-(1H-pyrazol-4-yl)phenol]
≥ 7.00	Cn1ncc(-c2ccc(-c3cnc(NC4CC(C)(C)NC(C)(C)C4)nn3)c(O)c2)n1 [Cpd 266, 5-(2-methyl-2H-1,2,3-triazol-4-yl)-2-{3-[(2,2,6,6-tetramethylpiperidin-4-yl)amino]-1,2,4-triazin-6-yl}phenol]
≥ 7.00	CC1(C)C[C@H](Nc2ncc(-c3ccc(-c4ccc5nccn5n4)cc3O)nn2)[C@H](F)C(C)(C)N1 [Cpd 249, 2-(3-{[(3S,4S)-3-fluoro-2,2,6,6-tetramethylpiperidin-4-yl]amino}-1,2,4-triazin-6-yl)-5-(imidazo[1,2-b]pyridazin-6-yl)phenol]
6.30 to 7.00	CC(C)NC1CCN(c2ncc(-c3ccc(-c4ncco4)cc3O)nn2)C1 (stereo not drawn) [Cpd 308, 5-(1,3-oxazol-2-yl)-2-(3-{3-[(propan-2-yl)amino]pyrrolidin-l-yl}-1,2,4-triazin-6-yl)phenol]
≥ 7.00	Cn1ncc(-c2ccc(-c3cnc(N[C@H]4CC(C)(C)NC(C)(C)[C@H]4F)nn3)c(O)c2)n1 [Cpd 287, 2-(3-{[(3S,4S)-3-fluoro-2,2,6,6-tetramethylpiperidin-4-yl]amino}-1,2,4-triazin-6-yl)-5-(2-methyl-2H-1,2,3-triazol-4-yl)phenol]
≥ 7.00	Oc1cc(-c2cn[nH]c2)ccc1-c1cnc(N2CCC3(CCCNC3)C2)nn1 (centres unmarked) [Cpd 369, 2-[3-(2,7-diazaspiro[4.5]decan-2-yl)-1,2,4-triazin-6-yl]-5-(1H-pyrazol-4-yl)phenol]
5.05 to 5.52	CN1CCC2(CC1)CN(c1ncc(-c3ccc(-c4ncccn4)cc3O)nn1)C2 [Cpd 244, 2-[3-(7-methyl-2,7-diazaspiro[3.5]nonan-2-yl)-1,2,4-triazin-6-yl]-5-(pyrimidin-2-yl)phenol]

Reference: US11780839B2, “Compounds for treating Huntington's disease” (PTC THERAPEUTICS, INC., priority 2018, dated 2023)
